9 compounds from patent publication US20230295197A1, “STAT5 and STAT6 Degraders and Uses Thereof” (REGENTS OF THE UNIVERSITY OF MICHICAN, priority 2022, published 2023) can be followed below.

Where two headings read alike, the source gives them in different places. Where only a bound is given, the exact number is not on record here.

For one test, the target named is T1, STAT6 (Homo sapiens, UniProt P42226).
T1 construct: endogenous in cells; host or cells: MOLM-16, KU-812, SKNO1, MB231, L1236
T1 sequence (P42226 1-847): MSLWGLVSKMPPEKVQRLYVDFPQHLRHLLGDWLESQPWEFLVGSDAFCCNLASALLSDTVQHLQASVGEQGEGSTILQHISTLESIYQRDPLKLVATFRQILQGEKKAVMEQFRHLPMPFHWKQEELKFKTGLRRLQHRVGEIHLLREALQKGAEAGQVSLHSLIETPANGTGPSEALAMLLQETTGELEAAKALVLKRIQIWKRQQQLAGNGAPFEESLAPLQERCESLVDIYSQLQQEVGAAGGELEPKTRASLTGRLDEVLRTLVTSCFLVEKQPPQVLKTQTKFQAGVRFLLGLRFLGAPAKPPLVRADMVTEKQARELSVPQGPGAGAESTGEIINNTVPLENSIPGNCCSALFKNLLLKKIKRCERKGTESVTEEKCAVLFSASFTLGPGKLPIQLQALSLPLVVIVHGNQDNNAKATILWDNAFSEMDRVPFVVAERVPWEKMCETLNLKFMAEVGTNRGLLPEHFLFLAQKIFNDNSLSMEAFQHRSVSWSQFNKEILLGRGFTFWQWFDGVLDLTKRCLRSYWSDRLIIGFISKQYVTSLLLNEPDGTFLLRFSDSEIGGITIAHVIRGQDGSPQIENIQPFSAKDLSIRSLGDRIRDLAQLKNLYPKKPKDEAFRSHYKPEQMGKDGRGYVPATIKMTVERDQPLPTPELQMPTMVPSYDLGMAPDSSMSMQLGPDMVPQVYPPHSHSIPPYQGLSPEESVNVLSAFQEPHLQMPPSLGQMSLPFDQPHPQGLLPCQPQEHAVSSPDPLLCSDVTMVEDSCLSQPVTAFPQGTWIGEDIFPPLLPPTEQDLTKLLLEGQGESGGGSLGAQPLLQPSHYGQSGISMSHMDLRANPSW
The test is described as follows: Immunoblotting (Western blot) analysis of STAT6 degradation efficiency of degraders in treated cells. The test is classed as cell-based. The following applies: MOLM-16 cells, read-out: DC50 S6 MOLM-16. In outline: (§1)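 Read-out: fluorescent IRDye 680RD/800CW secondaries imaged on an infrared scanner, with band intensities quantified by densitometry and GAPDH serving as loading control. Samples were RIPA lysates, BCA-normalised, from ~1 million treated cells.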
Background: Immunoblotting shows a protein as a band on a membrane.

Another test concerns STAT5. Kind of test: Immunoblotting (Western blot) analysis of STAT5 degradation efficiency of degraders in treated cells. Format: cell-based. The following applies: MOLM-16 cells, read-out: DC50 S5 MOLM-16. In outline: as §1

One may read the DC50 as the concentration giving 50% degradation. As to `CC(C)(C)[C@H](NC(=O)c1cc2cc(C(F)(F)P(=O)(O)O)ccc2s1)C(=O)N1C[C@H](NC(=O)CCCCCC#Cc2ccc3c(c2)CN(C2CCC(=O)NC2=O)C3=O)C[C@H]1C(=O)Nc1ncc(-c2ccccc2)s1` (stereo partly drawn) [Compound 568, ((2-(((2S)-1-((2S,4R)-4-(8-(2-(2,6-dioxopiperidin-3-yl)-1-oxoisoindolin-5-yl)oct-7-ynamido)-2-((5-phenylthiazol-2-yl)carbamoyl)pyrrolidin-1-yl)-3,3-dimethyl-1-oxobutan-2-yl)carbamoyl)benzo[b]thiophen-5-yl)difluoromethyl)phosphonic acid], the DC50 at STAT6 (numeric bound) and with STAT5 (numeric bound) was greater than 300 nM throughout.
On to `Cc1ncsc1-c1ccc([C@H](CC(=O)NCCCCCCC(=O)N[C@@H]2C[C@@H](C(=O)Nc3ncc(-c4ccccc4)s3)N(C(=O)[C@@H](NC(=O)c3cc4cc(C(F)(F)P(=O)(O)O)ccc4s3)C(C)(C)C)C2)NC(=O)[C@@H]2C[C@@H](O)CN2C(=O)[C@@H](NC(=O)C2(F)CC2)C(C)(C)C)cc1` [Compound 576, (difluoro(2-(((S)-1-((2S,4R)-4-(7-((S)-3-((2S,4R)-1-((S)-2-(1-fluorocyclopropane-1-carboxamido)-3,3-dimethylbutanoyl)-4-hydroxypyrrolidine-2-carboxamido)-3-(4-(4-methylthiazol-5-yl)phenyl)propanamido)heptanamido)-2-((5-phenylthiazol-2-yl)carbamoyl)pyrrolidin-1-yl)-3,3-dimethyl-1-oxobutan-2-yl)carbamoyl)benzo[b]thiophen-5-yl)methyl)phosphonic acid], for which the DC50 at STAT6 (numeric bound) and in the test with STAT5 (numeric bound) was greater than 300 nM throughout.
As to `Cc1ncsc1-c1ccc([C@H](CC(=O)NCCCCCCCC(=O)N[C@@H]2C[C@@H](C(=O)Nc3ncc(-c4ccccc4)s3)N(C(=O)[C@@H](NC(=O)c3cc4cc(C(F)(F)P(=O)(O)O)ccc4s3)C(C)(C)C)C2)NC(=O)[C@@H]2C[C@@H](O)CN2C(=O)[C@@H](NC(=O)C2(F)CC2)C(C)(C)C)cc1` [Compound 577, (difluoro(2-(((S)-1-((2S,4R)-4-(8-((S)-3-((2S,4R)-1-((S)-2-(1-fluorocyclopropane-1-carboxamido)-3,3-dimethylbutanoyl)-4-hydroxypyrrolidine-2-carboxamido)-3-(4-(4-methylthiazol-5-yl)phenyl)propanamido)octanamido)-2-((5-phenylthiazol-2-yl)carbamoyl)pyrrolidin-1-yl)-3,3-dimethyl-1-oxobutan-2-yl)carbamoyl)benzo[b]thiophen-5-yl)methyl)phosphonic acid], the DC50 on STAT6 (numeric bound) and in the test with STAT5 (numeric bound) was greater than 300 nM in each case.
On to `Cc1ncsc1-c1ccc([C@H](CC(=O)NCCCCCCCCC(=O)N[C@@H]2C[C@@H](C(=O)Nc3ncc(-c4ccccc4)s3)N(C(=O)[C@@H](NC(=O)c3cc4cc(C(F)(F)P(=O)(O)O)ccc4s3)C(C)(C)C)C2)NC(=O)[C@@H]2C[C@@H](O)CN2C(=O)[C@@H](NC(=O)C2(F)CC2)C(C)(C)C)cc1` [Compound 578, (difluoro(2-(((S)-1-((2S,4R)-4-(9-((S)-3-((2S,4R)-1-((S)-2-(1-fluorocyclopropane-1-carboxamido)-3,3-dimethylbutanoyl)-4-hydroxypyrrolidine-2-carboxamido)-3-(4-(4-methylthiazol-5-yl)phenyl)propanamido)nonanamido)-2-((5-phenylthiazol-2-yl)carbamoyl)pyrrolidin-1-yl)-3,3-dimethyl-1-oxobutan-2-yl)carbamoyl)benzo[b]thiophen-5-yl)methyl)phosphonic acid], for which the DC50 at STAT6 (numeric bound) and in the test with STAT5 (numeric bound) was greater than 300 nM each time.
Consider `Cc1ncsc1-c1ccc([C@H](CC(=O)NCCCCCCCCCC(=O)N[C@@H]2C[C@@H](C(=O)Nc3ncc(-c4ccccc4)s3)N(C(=O)[C@@H](NC(=O)c3cc4cc(C(F)(F)P(=O)(O)O)ccc4s3)C(C)(C)C)C2)NC(=O)[C@@H]2C[C@@H](O)CN2C(=O)[C@@H](NC(=O)C2(F)CC2)C(C)(C)C)cc1` [Compound 579, (difluoro(2-(((S)-1-((2S,4R)-4-(10-((S)-3-((2S,4R)-1-((S)-2-(1-fluorocyclopropane-1-carboxamido)-3,3-dimethylbutanoyl)-4-hydroxypyrrolidine-2-carboxamido)-3-(4-(4-methylthiazol-5-yl)phenyl)propanamido)decanamido)-2-((5-phenylthiazol-2-yl)carbamoyl)pyrrolidin-1-yl)-3,3-dimethyl-1-oxobutan-2-yl)carbamoyl)benzo[b]thiophen-5-yl)methyl)phosphonic acid], for which the DC50 on STAT6 (numeric bound) and with STAT5 (numeric bound) was greater than 300 nM in each case.
As to `Cc1ncsc1-c1ccc([C@H](CC(=O)NCCOCCC(=O)N[C@@H]2C[C@@H](C(=O)Nc3ncc(-c4ccccc4)s3)N(C(=O)[C@@H](NC(=O)c3cc4cc(C(F)(F)P(=O)(O)O)ccc4s3)C(C)(C)C)C2)NC(=O)[C@@H]2C[C@@H](O)CN2C(=O)[C@@H](NC(=O)C2(F)CC2)C(C)(C)C)cc1` [Compound 580, (difluoro(2-(((S)-1-((2S,4R)-4-(3-(2-((S)-3-((2S,4R)-1-((S)-2-(1-fluorocyclopropane-1-carboxamido)-3,3-dimethylbutanoyl)-4-hydroxypyrrolidine-2-carboxamido)-3-(4-(4-methylthiazol-5-yl)phenyl)propanamido)ethoxy)propanamido)-2-((5-phenylthiazol-2-yl)carbamoyl)pyrrolidin-1-yl)-3,3-dimethyl-1-oxobutan-2-yl)carbamoyl)benzo[b]thiophen-5-yl)methyl)phosphonic acid], the DC50 on STAT6 (numeric bound) and with STAT5 (numeric bound) was greater than 300 nM each time.
For `Cc1ncsc1-c1ccc([C@H](CC(=O)NCCOCCOCCC(=O)N[C@@H]2C[C@@H](C(=O)Nc3ncc(-c4ccccc4)s3)N(C(=O)[C@@H](NC(=O)c3cc4cc(C(F)(F)P(=O)(O)O)ccc4s3)C(C)(C)C)C2)NC(=O)[C@@H]2C[C@@H](O)CN2C(=O)[C@@H](NC(=O)C2(F)CC2)C(C)(C)C)cc1` [Compound 581, (difluoro(2-(((S)-1-((2S,4R)-4-((S)-1-((2S,4R)-1-((S)-2-(1-fluorocyclopropane-1-carboxamido)-3,3-dimethylbutanoyl)-4-hydroxypyrrolidin-2-yl)-3-(4-(4-methylthiazol-5-yl)phenyl)-1,5-dioxo-9,12-dioxa-2,6-diazapentadecan-15-amido)-2-((5-phenylthiazol-2-yl)carbamoyl)pyrrolidin-1-yl)-3,3-dimethyl-1-oxobutan-2-yl)carbamoyl)benzo[b]thiophen-5-yl)methyl)phosphonic acid], the DC50 on STAT6 (numeric bound) and with STAT5 (numeric bound) was greater than 300 nM in each case.
For the compound `Cc1ncsc1-c1ccc([C@H](CC(=O)NCCOCCOCCOCCC(=O)N[C@@H]2C[C@@H](C(=O)Nc3ncc(-c4ccccc4)s3)N(C(=O)[C@@H](NC(=O)c3cc4cc(C(F)(F)P(=O)(O)O)ccc4s3)C(C)(C)C)C2)NC(=O)[C@@H]2C[C@@H](O)CN2C(=O)[C@@H](NC(=O)C2(F)CC2)C(C)(C)C)cc1` [Compound 582, (difluoro(2-(((S)-1-((2S,4R)-4-((S)-1-((2S,4R)-1-((S)-2-(1-fluorocyclopropane-1-carboxamido)-3,3-dimethylbutanoyl)-4-hydroxypyrrolidin-2-yl)-3-(4-(4-methylthiazol-5-yl)phenyl)-1,5-dioxo-9,12,15-trioxa-2,6-diazaoctadecan-18-amido)-2-((5-phenylthiazol-2-yl)carbamoyl)pyrrolidin-1-yl)-3,3-dimethyl-1-oxobutan-2-yl)carbamoyl)benzo[b]thiophen-5-yl)methyl)phosphonic acid], the DC50 at STAT6 (numeric bound) and with STAT5 (numeric bound) was greater than 300 nM in each case.
Regarding `CC(C)(C)[C@H](NC(=O)c1cc2cc(C(F)(F)P(=O)(O)O)ccc2s1)C(=O)N1C[C@@H](OCCCCCC#Cc2cccc3c2CN(C2CCC(=O)NC2=O)C3=O)C[C@H]1C(=O)N1CCO[C@H](c2ccccc2)C1` (stereo partly drawn) [Compound 593, ((2-(((2S)-1-((2S,4S)-4-((7-(2-(2,6-dioxopiperidin-3-yl)-1-oxoisoindolin-4-yl)hept-6-yn-1-yl)oxy)-2-((R)-2-phenylmorpholine-4-carbonyl)pyrrolidin-1-yl)-3,3-dimethyl-1-oxobutan-2-yl)carbamoyl)benzo[b]thiophen-5-yl)difluoromethyl)phosphonic acid], the DC50 is less than 100 nM on STAT6 (class symbols) and greater than 10000 nM in the test with STAT5 (class symbols).
